Test results as given in patent US8158609B1, “Use of cyclodextrins as an active ingredient for treating dry AMD and solubilizing drusen” (Novartis AG, priority 2006, dated 2012).
Entries after “also recorded” stand apart in the source; their conditions may differ.

How the values were obtained:
[1] = tested on: lipid component of drusen; experiment: lipid histochemistry of drusen in eyes with AMD, Oil Red O staining; design: species or system human; settings: 40 ml of 25% solution, 37° C., 24 hrs
Experimental: (§1) Unfixed, donor eye with AMD drusen was immersed in 30% sucrose in PBS buffer at pH 7.4 for 24 hours at 4° C. for cryoprotection, then embedded in OCT. For cryostat sections, the eye was serially sectioned at 8 μm thickness and stored at −70° C. Drusen were identified under the microscope. Unfixed fresh frozen mouse brown fat tissue was sectioned at 10 μm thickness as the positive control.
(§2) A viable in vitro assay to evaluate compounds with a potential to remove drusen in the eye was explored. Sections with drusen were treated with cyclodextrin for 30 min, 1 hr, 2 hrs, 4 hrs, 15 hrs at room temperature. In a subsequent experiment, sections with drusen were immersed in 40 ml of 25% Hydroxypropyl β-cyclodextrin at 37° C. for 24 hrs.
(§3) Unfixed frozen human eye drusens were considered closest to the in vivo state of drusen. Mouse brown fat was used for positive control.

[2] = tested on: mouse brown fat tissue; experiment: lipid histochemistry of fresh fat tissue, Oil Red O staining (positive control tissue); settings: for dissolving of mouse fat tissue: 37° C., 24 hrs, compared with untreated fat tissue
Experimental: as §1
Hydroxypropyl β-cyclodextrin selected compound was titered to the best concentration by mouse fat tissue at 37° C. for 24 hrs (Table.2).
as §3

[3] = tested on: drusen; experiment: in vitro drusen removal assay, frozen drusen sections treated with cyclodextrin, H&E staining; design: species or system human
Experimental: as §1, §2, §3

Substance | ORO staining of lipid-containing drusen / dissolving the lipid component of drusen [1] | dissolving of fresh mouse fat tissue ([2]; 25% solution) | dissolving of mouse fat tissue ([2]; 25%-45% solution) | size of a drusen, H&E 40× (FIG. 1C) ([3]; 25% solution, 2 hours) | change / dissolving of drusen by H&E staining ([3]; 40 ml, 25% (different concentration), 37° C., 24 hrs) | dissolving of mouse fat tissue ([2]; 30% solution)
Hydroxypropyl β-cyclodextrin | stained negatively; also recorded: has efficacy in dissolving the lipid component of drusen | has efficacy in dissolving fresh mouse fat tissue | has effect on dissolving the partial fat tissue; also recorded: partial fat tissues were dissolved | reduced size | no change; also recorded: could not completely dissolve drusen | 
Sulfonyletherbutyl β-cyclodextrin |  |  |  |  |  | partial fat tissues were dissolved
